Measurements: article PMC10762662, “An orally-available monovalent SMAC mimetic compound as a broad-spectrum antiviral” (Protein & Cell, 2023)

Legend:
Assay in all cases: BIR3 domain binding IC50 (assay format not stated)
[1] = biological target: T1, XIAP (Homo sapiens, UniProt P98170)
T1 construct: BIR3 domain

[2] = biological target: T2, cIAP2 (Homo sapiens, UniProt Q13489)
T2 construct: gene BIRC3; BIR3 domain

[3] = biological target: T3, cIAP1 (Homo sapiens, UniProt Q13490)
T3 construct: gene BIRC2; BIR3 domain
T3 sequence (Q13490 264-331 limits assumed): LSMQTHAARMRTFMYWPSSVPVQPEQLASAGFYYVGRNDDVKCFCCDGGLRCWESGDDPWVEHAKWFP

T2 sequence (Q13489 250-317 limits assumed): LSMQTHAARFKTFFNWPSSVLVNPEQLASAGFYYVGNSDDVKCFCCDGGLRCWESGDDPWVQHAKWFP
T1 sequence (P98170 241-356 limits assumed): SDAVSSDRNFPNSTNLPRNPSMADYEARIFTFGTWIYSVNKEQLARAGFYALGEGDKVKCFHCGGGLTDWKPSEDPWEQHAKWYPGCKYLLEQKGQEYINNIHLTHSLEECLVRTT

IC50 [1]: 273 ± 82.5 nM | IC50 [2]: 17.1 ± 5.37 nM | IC50 [3]: 0.9 ± 0.15 nM
SMILES: CN[C@@H](C)C(=O)Nc1ccc(-c2c(C)nc3ccccn23)c(C#Cc2ccc3ncccc3c2)n1 [BI-82]
